“And” between values parts separate entries of the source, which are not always exact repeats. Identical values can stand only once.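 Test compounds were applied to cells in 96-well plates for 48 hours at 5 doses. GI50: concentration for 50% inhibition of growth. TGI: concentration producing complete growth inhibition.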
Key:
Assay in all cases: growth of human tumour cells (NCI), 48 h; in the data active means GI50 below about 0.43 µM; inactive means the rest
[1] = tested on: COLO 205 colon
[2] = tested on: HCC-2998 colon
[3] = tested on: MCF7 breast
[4] = tested on: PC-3 prostate
[5] = tested on: T-47D breast
[6] = tested on: SK-OV-3 ovarian
[7] = tested on: KM12 colon
[8] = tested on: K-562 leukemia
[9] = tested on: SN12C renal
[10] = tested on: SNB-75 CNS
[11] = tested on: UACC-62 melanoma
[12] = tested on: HS 578T breast
[13] = tested on: OVCAR-8 ovarian
[14] = tested on: EKVX NSCLC
[15] = tested on: LOX IMVI melanoma
[16] = tested on: IGROV1 ovarian
[17] = tested on: NCI/ADR-RES ovarian
[18] = tested on: OVCAR-4 ovarian
[19] = tested on: CCRF-CEM leukemia
[20] = tested on: SR leukemia
[21] = tested on: HOP-92 NSCLC
[22] = tested on: SF-268 CNS
[23] = tested on: MDA-MB-231 breast
[24] = tested on: NCI-H226 lung
[25] = tested on: UO-31 renal
[26] = tested on: RPMI-8226 leukemia
[27] = tested on: 786-0 renal
[28] = tested on: UACC-257 melanoma
[29] = tested on: OVCAR-3 ovarian
[30] = tested on: SK-MEL-28 melanoma
[31] = tested on: OVCAR-5 ovarian
[32] = tested on: CAKI-1 renal
[33] = tested on: NCI-H460 lung
[34] = tested on: A549 NSCLC
[35] = tested on: SK-MEL-5 melanoma
[36] = tested on: MDA-MB-435
[37] = tested on: RXF 393 renal
[38] = tested on: SF-539 CNS
[39] = tested on: A498 renal
[40] = tested on: HCT-116 colon
[41] = tested on: DU-145 prostate
[42] = tested on: HCT-15 colon
[43] = tested on: MOLT-4 leukemia
[44] = tested on: SW-620 colon
[45] = tested on: U251 CNS
[46] = tested on: M14 melanoma
[47] = tested on: SF-295 CNS
[48] = tested on: NCI-H23 lung
[49] = tested on: HOP-62 NSCLC
[50] = tested on: SNB-19 CNS
[51] = tested on: ACHN renal
[52] = tested on: MALME-3M melanoma
[53] = tested on: BT-549 breast

Cc1c(C)[n+](=O)c(C)c(C)n1[O-]
> 100 µM: TGI [1] | TGI [2] | TGI [3] | TGI [4] | TGI [5] | TGI [6] | TGI [7] | TGI [8] | TGI [9] | TGI [10] | TGI [11] | TGI [12] | TGI [13] | TGI [14] | TGI [15] | TGI [16] | TGI [17] | TGI [18] | TGI [19] | TGI [20] | TGI [21] | TGI [22] | TGI [23] | TGI [24] | TGI [25] | TGI [26] | TGI [27] | TGI [28] | TGI [29] | TGI [30] | TGI [31] | TGI [32] | TGI [33] | TGI [34] | TGI [35] | TGI [36] | TGI [37] | TGI [38] | TGI [39] | TGI [40] | TGI [41] | TGI [42] | TGI [43] | TGI [44] | TGI [45] | TGI [46] | TGI [47] | TGI [48] | TGI [49] | TGI [50] | TGI [51] | TGI [52]
inactive: GI50 [1] > 100 µM | GI50 [2] > 100 µM | GI50 [3] > 100 µM | GI50 [4] > 100 µM | GI50 [5] > 100 µM | GI50 [6] > 100 µM | GI50 [7] > 100 µM | GI50 [8] > 100 µM | GI50 [9] > 100 µM | GI50 [10] 79.8 µM | GI50 [11] > 100 µM | GI50 [12] > 100 µM | GI50 [13] > 100 µM | GI50 [14] > 100 µM | GI50 [15] > 100 µM | GI50 [16] > 100 µM | GI50 [17] > 100 µM | GI50 [18] > 100 µM | GI50 [19] > 100 µM | GI50 [20] > 100 µM | GI50 [21] 2.91 µM | GI50 [22] > 100 µM | GI50 [23] > 100 µM | GI50 [24] > 100 µM | GI50 [25] > 100 µM | GI50 [26] > 100 µM | GI50 [27] > 100 µM | GI50 [28] > 100 µM | GI50 [29] > 100 µM | GI50 [30] > 100 µM | GI50 [31] > 100 µM | GI50 [32] > 100 µM | GI50 [33] > 100 µM | GI50 [34] > 100 µM | GI50 [35] > 100 µM | GI50 [36] > 100 µM | GI50 [37] > 100 µM | GI50 [38] > 100 µM | GI50 [39] > 100 µM | GI50 [40] > 100 µM | GI50 [41] > 100 µM | GI50 [42] > 100 µM | GI50 [43] > 100 µM | GI50 [44] > 100 µM | GI50 [45] > 100 µM | GI50 [46] > 100 µM | GI50 [47] > 100 µM | GI50 [48] > 100 µM | GI50 [49] > 100 µM | GI50 [50] > 100 µM | GI50 [51] > 100 µM | GI50 [52] > 100 µM

C/C=C/CC(C)C(O)C1C(=O)NC(CC)C(=O)N(C)CC(=O)N(C)C(CC(C)C)C(=O)NC(C(C)C)C(=O)N(C)C(CC(C)C)C(=O)NC(C)C(=O)NC(C)C(=O)N(C)C(CC(C)C)C(=O)N(C)C(CC(C)C)C(=O)N(C)C(C(C)C)C(=O)N1C (stereo not given)
9.02 µM and 14.8 µM: TGI [21]
28.2 µM: TGI [12]
6.66 µM and 13.8 µM: TGI [24]
> 32.5 µM: TGI [3] | TGI [4] | TGI [17] | TGI [41]
6.92 µM: TGI [53]
5.32 µM: TGI [5]
inactive: GI50 [3] 2.71 µM | GI50 [4] 0.97 µM | GI50 [5] 0.842 µM | GI50 [53] 2.02 µM | GI50 [12] 3.36 µM | GI50 [17] 1.44 µM | GI50 [21] 1.09 µM | GI50 [23] 3.79 µM | GI50 [24] 2.29 µM | GI50 [28] 0.747 µM | GI50 [36] 0.609 µM | GI50 [41] 1.43 µM | GI50 [48] 1.2 µM
9.57 µM: TGI [23]
4.62 µM: TGI [36]
5.57 µM and 8.67 µM: TGI [28]
> 32.5 µM and 28.6 µM: TGI [48]

From PubChem BioAssay (NCI)
